Results taken from ChEMBL document CHEMBL4334553, “Discovery of Hydroxyamidine Based Inhibitors of IDO1 for Cancer Immunotherapy with Reduced Potential for Glucuronidation” (ACS Med Chem Lett, 2020).

What was measured:
[1] = biological target: T1, Indoleamine 2,3-dioxygenase 1 (Homo sapiens, UniProt P14902); assay: Inhibition of human N-terminal GST-tagged IDO1 expressed in Escherichia coli Rosetta(DE3) pLysS using L-tryptophan as substrate measured after 1 hr by fluorescence assay
[2] = Half life in mouse liver microsomes; format: ADME, Microsome
[3] = Half life in human liver microsomes; format: ADME, Microsome
[4] = biological target: T2, UGT1A9 (Homo sapiens, UniProt O60656); assay: Stability assessed as recombinant UGT1A9 (unknown origin) mediated compound glucuronidation by measuring half-life at 1 uM incubated in water bath by shaking at 37 degree C measured upto 60 mins in presence of UDPGA by LC-MS/MS analysis; format: ADME
T2 sequence (O60656 whole entry): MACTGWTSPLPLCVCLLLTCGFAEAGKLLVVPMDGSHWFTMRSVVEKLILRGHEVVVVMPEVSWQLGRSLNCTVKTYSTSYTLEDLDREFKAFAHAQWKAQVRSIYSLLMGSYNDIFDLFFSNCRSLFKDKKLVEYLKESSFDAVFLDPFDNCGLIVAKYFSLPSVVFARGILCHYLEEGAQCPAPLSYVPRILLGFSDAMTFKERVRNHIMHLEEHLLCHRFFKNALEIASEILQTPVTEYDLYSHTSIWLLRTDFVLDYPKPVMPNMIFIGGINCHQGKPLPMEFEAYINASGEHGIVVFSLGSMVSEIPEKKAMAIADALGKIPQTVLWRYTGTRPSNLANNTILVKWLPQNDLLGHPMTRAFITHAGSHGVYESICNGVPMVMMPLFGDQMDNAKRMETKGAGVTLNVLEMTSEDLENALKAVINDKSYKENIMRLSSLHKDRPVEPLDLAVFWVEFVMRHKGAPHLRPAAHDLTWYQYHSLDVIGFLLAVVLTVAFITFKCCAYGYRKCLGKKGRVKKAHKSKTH

[5] = biological target: T1, Indoleamine 2,3-dioxygenase 1; assay: Inhibition of IDO1 in interferon-gamma-induced human SKOV3 cells assessed as N-formylkynurenine formation using L-tryptophan as substrate measured after 24 hrs by fluorescence assay

T1 sequence (P14902 whole entry): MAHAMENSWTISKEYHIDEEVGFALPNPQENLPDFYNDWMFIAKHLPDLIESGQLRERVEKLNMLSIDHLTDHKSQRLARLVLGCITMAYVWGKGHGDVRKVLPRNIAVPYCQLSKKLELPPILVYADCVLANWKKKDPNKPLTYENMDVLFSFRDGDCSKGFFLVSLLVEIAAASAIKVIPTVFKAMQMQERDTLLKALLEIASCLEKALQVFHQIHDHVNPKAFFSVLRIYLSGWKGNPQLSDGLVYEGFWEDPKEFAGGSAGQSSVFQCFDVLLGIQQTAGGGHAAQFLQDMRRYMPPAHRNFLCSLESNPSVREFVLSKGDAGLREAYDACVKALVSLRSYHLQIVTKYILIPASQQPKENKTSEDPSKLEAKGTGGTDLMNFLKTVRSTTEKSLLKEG

| IC50 [1] [nM] | half-life [2] [h] | half-life [3] [h] | half-life at 1 µM [4] [h] | IC50 [5] [nM] | SMILES |
| --- | --- | --- | --- | --- | --- |
| 93 | 0.398 | 1.57 | > 3 | 19 | C[C@@H](CSc1nonc1/C(=N/O)Nc1ccc(F)c(Br)c1)NC(=O)CS(N)(=O)=O |
| 110 | 0.537 | 0.77 | 1.33 | 12 | C[C@H](CSc1nonc1/C(=N/O)Nc1ccc(F)c(Br)c1)NC(=O)CS(N)(=O)=O |
| 360 | 0.268 | 1.97 | > 3 | 16 | CC1(C(=O)NCCSc2nonc2/C(=N/O)Nc2ccc(F)c(C(F)F)c2)CCN1 (stereo not given) |
|  |  |  | 0.383 |  | NS(=O)(=O)NCCNc1nonc1C(=NO)Nc1ccc(F)c(Br)c1 [EPACADOSTAT] |
| 140 | 0.175 | 0.937 | > 3 | 8.4 | CC(C)(O)CC(=O)NCCSc1nonc1/C(=N/O)Nc1ccc(F)c(C(F)F)c1 |
| 140 | 0.44 | 1.95 | > 3 | 12 | NS(=O)(=O)CC(=O)NCCSc1nonc1/C(=N/O)Nc1cccc(C(F)(F)F)c1 |
| 100 | 0.765 | 1.27 | 1.59 | 14 | CS(=O)(=O)CC(=O)NCCSc1nonc1/C(=N/O)Nc1ccc(F)c(C(F)F)c1 |
| 230 |  |  |  | 39 | COc1nonc1/C(=N/O)Nc1ccc(F)c(Br)c1 |
| 560 |  |  |  | 15 | CSc1nonc1/C(=N/O)Nc1ccc(F)c(Br)c1 |
| 130 | 1.5 | > 3 | > 3 | 17 | NS(=O)(=O)CC(=O)NCCSc1nonc1/C(=N/O)Nc1cccc(C(F)F)c1 |
| 270 | 0.29 | 1.73 | 0.357 | 9.3 | CS(=O)(=O)NCCSc1nonc1/C(=N/O)Nc1ccc(F)c(Br)c1 |
| 30 | 0.918 | > 3 | 0.955 | 8.1 | NS(=O)(=O)CC(=O)NCCSc1nonc1/C(=N/O)Nc1cccc(Br)c1 |
| 240 | > 3 | > 3 | > 3 | 44 | N#Cc1cccc(N/C(=N\O)c2nonc2SCCNC(=O)CS(N)(=O)=O)c1 |
